# In patent publication US12344603B2 (Genentech, Inc., priority 2020, dated 2025):
# Target: IRE1α (Homo sapiens (Human), UniProt O75460, D688N)
# Assay: IRE1α TR-FRET competition binding assay (IRE1α HTRF)
# Settings: TR-FRET competition binding to kinase domain of IRE1α
# Method in brief: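 Kinase domain (0.25 nM) pre-bound to 2 nM Eu anti-His antibody for 1 h at 4° C in HEPES pH 7.5/MgCl2/Brij 35/DTT/gamma globulin buffer, then mixed with compounds and 2 nM Alexa 647 ATP-competitive probe. 1 h at room temperature; probe displacement read as TR-FRET (Ex 347 nm, Em 665/615 nm).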
# IRE1α, sequence (O75460 547-977 D688N): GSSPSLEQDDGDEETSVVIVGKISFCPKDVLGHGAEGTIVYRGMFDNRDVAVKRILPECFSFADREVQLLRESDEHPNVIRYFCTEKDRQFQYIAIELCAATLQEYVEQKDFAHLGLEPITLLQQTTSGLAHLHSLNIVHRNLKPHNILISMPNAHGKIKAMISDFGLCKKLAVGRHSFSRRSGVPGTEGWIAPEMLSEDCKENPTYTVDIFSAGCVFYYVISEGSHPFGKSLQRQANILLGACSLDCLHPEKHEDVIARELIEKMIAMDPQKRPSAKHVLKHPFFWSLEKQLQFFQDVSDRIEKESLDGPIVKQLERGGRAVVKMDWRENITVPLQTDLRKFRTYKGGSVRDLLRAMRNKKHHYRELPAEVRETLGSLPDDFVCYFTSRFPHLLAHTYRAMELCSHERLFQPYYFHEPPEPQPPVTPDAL
row,IC50,Structure (SMILES)
1,0.2 nM,"CC(C)n1c(=O)c(-c2cc(F)c(NS(=O)(=O)CC3CC(F)(F)C3)c(F)c2)nc2cnc(N[C@H]3CC[C@H](N(C)C)CC3)nc21 [Example 249, 1-(3,3-Difluorocyclobutyl)-N-[4-[2-[[4-(dimethylamino)cyclohexyl]amino]-8-isopropyl-7-oxo-pteridin-6-yl]-2,6-difluoro-phenyl]methanesulfonamide]"
2,0.3 nM,"CC(C)n1c(=O)c(-c2ccc(NS(=O)(=O)CC3CC34CC4)c(F)c2)nc2cnc(N[C@H]3CC[C@H](N(C)C)CC3)nc21 (stereo partly shown) [Example 256, N-[4-[2-[[4-(Dimethylamino)cyclohexyl]amino]-8-isopropyl-7-oxo-pteridin-6-yl]-2-fluoro-phenyl]-1-spiro[2.2]pentan-2-yl-methanesulfonamide]"
3,0.2 nM,"CC(C)n1c(=O)c(-c2ccc(NS(=O)(=O)CC3C(F)(F)C34CCC4)c(F)c2)nc2cnc(N[C@H]3CC[C@H](N(C)C)CC3)nc21 (stereo partly shown) [Example 257, 1-(2,2-Difluorospiro[2.3]hexan-1-yl)-N-[4-[2-[[4-(dimethylamino)cyclohexyl]amino]-8-isopropyl-7-oxo-pteridin-6-yl]-2-fluoro-phenyl]methanesulfonamide]"
4,0.2 nM,"CC(C)n1c(=O)c(-c2ccc(NS(=O)(=O)CC3(C(C)(F)F)CC3)c(F)c2)nc2cnc(N[C@H]3CC[C@H](N(C)C)CC3)nc21 [Example 258, 1-[1-(1,1-Difluoroethyl)cyclopropyl]-N-[4-[2-[[4-(dimethylamino)cyclohexyl]amino]-8-isopropyl-7-oxo-pteridin-6-yl]-2-fluoro-phenyl]methanesulfonamide]"
5,0.2 nM,"CC(C)n1c(=O)c(-c2ccc(NS(=O)(=O)CCC3CC3(F)F)c(F)c2)nc2cnc(N[C@H]3CC[C@H](N(C)C)CC3)nc21 (stereo partly shown) [Example 259, 2-(2,2-Difluorocyclopropyl)-N-[4-[2-[[4-(dimethylamino)cyclohexyl]amino]-8-isopropyl-7-oxo-pteridin-6-yl]-2-fluoro-phenyl]ethanesulfonamide]"
6,0.2 nM,"CC(C)n1c(=O)c(-c2ccc(NS(=O)(=O)CC3CC4(CCC4)C3)c(F)c2)nc2cnc(N[C@H]3CC[C@H](N(C)C)CC3)nc21 [Example 260, N-[4-[2-[[4-(Dimethylamino)cyclohexyl]amino]-8-isopropyl-7-oxo-pteridin-6-yl]-2-fluoro-phenyl]-1-spiro[3.3]heptan-2-yl-methanesulfonamide]"
7,0.2 nM,"CC(C)n1c(=O)c(-c2ccc(NS(=O)(=O)CC3(C(F)(F)F)CCC3)c(F)c2)nc2cnc(N[C@H]3CC[C@H](N(C)C)CC3)nc21 [Example 261, N-[4-[2-[[4-(Dimethylamino)cyclohexyl]amino]-8-isopropyl-7-oxo-pteridin-6-yl]-2-fluoro-phenyl]-1-[1-(trifluoromethyl)cyclobutyl]methanesulfonamide]"
8,0.3 nM,"CC(C)n1c(=O)c(-c2ccc(NS(=O)(=O)CC3CC4(C3)CC4(F)F)c(F)c2)nc2cnc(N[C@H]3CC[C@H](N(C)C)CC3)nc21 (stereo partly shown) [Example 262, 1-(2,2-Difluorospiro[2.3]hexan-5-yl)-N-[4-[2-[[4-(dimethylamino)cyclohexyl]amino]-8-isopropyl-7-oxo-pteridin-6-yl]-2-fluoro-phenyl]methanesulfonamide]"
9,0.2 nM,"CC(C)n1c(=O)c(-c2ccc(NS(=O)(=O)CC3CC4C(C3)C4(F)F)c(F)c2)nc2cnc(N[C@H]3CC[C@H](N(C)C)CC3)nc21 (stereo partly shown) [Example 265, 1-(6,6-Difluoro-3-bicyclo[3.1.0]hexanyl)-N-[4-[2-[[4-(dimethylamino)cyclohexyl]amino]-8-isopropyl-7-oxo-pteridin-6-yl]-2-fluorophenyl]methanesulfonamide]"
10,0.2 nM,"CC(C)n1c(=O)c(-c2ccc(NS(=O)(=O)CC3(C(F)F)CCCC3)c(F)c2)nc2cnc(N[C@H]3CC[C@H](N(C)C)CC3)nc21 [Example 266, 1-[1-(Difluoromethyl)cyclopentyl]-N-[4-[2-[[4-(dimethylamino)cyclohexyl]amino]-8-isopropyl-7-oxo-pteridin-6-yl]-2-fluoro-phenyl]methanesulfonamide]"

# More lines, now with the values behind:
row,Structure (SMILES),IC50
1,"CC(C)n1c(=O)c(-c2cc(F)c(NS(=O)(=O)CCC(F)(F)F)c(F)c2)nc2cnc(N[C@H]3CC[C@H](N(C)C)CC3)nc21 [Example 239, N-[4-[2-[[4-(Dimethylamino)cyclohexyl]amino]-8-isopropyl-7-oxo-pteridin-6-yl]-2,6-difluoro-phenyl]-3,3,3-trifluoro-propane-1-sulfonamide]",0.2 nM
2,"CC(C)n1c(=O)c(-c2cc(F)c(NS(=O)(=O)CC3(C(F)(F)F)CC3)c(F)c2)nc2cnc(N[C@H]3CC[C@H](N(C)C)CC3)nc21 [Example 240, N-[4-[2-[[4-(Dimethylamino)cyclohexyl]amino]-8-isopropyl-7-oxo-pteridin-6-yl]-2,6-difluoro-phenyl]-1-[1-(trifluoromethyl)cyclopropyl]methanesulfonamide]",0.1 nM
3,"CC(C)n1c(=O)c(-c2cc(F)c(NS(=O)(=O)CCC(C)(F)F)c(F)c2)nc2cnc(N[C@H]3CC[C@H](N(C)C)CC3)nc21 [Example 241, N-[4-[2-[[4-(Dimethylamino)cyclohexyl]amino]-8-isopropyl-7-oxo-pteridin-6-yl]-2,6-difluoro-phenyl]-3,3-difluoro-butane-1-sulfonamide]",0.2 nM
4,"CCCS(=O)(=O)Nc1c(F)cc(-c2nc3cnc(N[C@H]4CC[C@H](N(C)C)CC4)nc3n(C(C)C)c2=O)cc1F [Example 242, N-[4-[2-[[4-(Dimethylamino)cyclohexyl]amino]-8-isopropyl-7-oxo-pteridin-6-yl]-2,6-difluoro-phenyl]propane-1-sulfonamide]",0.1 nM
5,"CC(C)n1c(=O)c(-c2cc(F)c(NS(=O)(=O)Cc3ccc(Cl)cc3)c(F)c2)nc2cnc(N[C@H]3CC[C@H](N(C)C)CC3)nc21 [Example 243, 1-(4-Chlorophenyl)-N-[4-[2-[[4-(dimethylamino)cyclohexyl]amino]-8-isopropyl-7-oxo-pteridin-6-yl]-2,6-difluoro-phenyl]methanesulfonamide]",0.8 nM
6,"CC(C)n1c(=O)c(-c2cc(F)c(NS(=O)(=O)Cc3ccc(C(F)F)cc3)c(F)c2)nc2cnc(N[C@H]3CC[C@H](N(C)C)CC3)nc21 [Example 244, 1-[4-(Difluoromethyl)phenyl]-N-[4-[2-[[4-(dimethylamino)cyclohexyl]amino]-8-isopropyl-7-oxo-pteridin-6-yl]-2,6-difluoro-phenyl]methanesulfonamide]",0.2 nM
7,"CC(C)n1c(=O)c(-c2cc(F)c(NS(=O)(=O)Cc3ccc(F)cc3)c(F)c2)nc2cnc(N[C@H]3CC[C@H](N(C)C)CC3)nc21 [Example 245, N-[4-[2-[[4-(Dimethylamino)cyclohexyl]amino]-8-isopropyl-7-oxo-pteridin-6-yl]-2,6-difluoro-phenyl]-1-(4-fluorophenyl)methanesulfonamide]",0.1 nM
8,"Cc1ccc(CS(=O)(=O)Nc2c(F)cc(-c3nc4cnc(N[C@H]5CC[C@H](N(C)C)CC5)nc4n(C(C)C)c3=O)cc2F)cc1 [Example 246, N-[4-[2-[[4-(Dimethylamino)cyclohexyl]amino]-8-isopropyl-7-oxo-pteridin-6-yl]-2,6-difluoro-phenyl]-1-(p-tolyl)methanesulfonamide]",0.2 nM
9,"CC(C)n1c(=O)c(-c2cc(F)c(NS(=O)(=O)Cc3ccccc3)c(F)c2)nc2cnc(N[C@H]3CC[C@H](N(C)C)CC3)nc21 [Example 247, N-[4-[2-[[4-(Dimethylamino)cyclohexyl]amino]-8-isopropyl-7-oxo-pteridin-6-yl]-2,6-difluoro-phenyl]-1-phenyl-methanesulfonamide]",0.1 nM
10,"CC(C)n1c(=O)c(-c2cc(F)c(NS(=O)(=O)CC(F)(F)CC3CC3)c(F)c2)nc2cnc(N[C@H]3CC[C@H](N(C)C)CC3)nc21 [Example 248, 3-Cyclopropyl-N-[4-[2-[[4-(dimethylamino)cyclohexyl]amino]-8-isopropyl-7-oxo-pteridin-6-yl]-2,6-difluoro-phenyl]-2,2-difluoro-propane-1-sulfonamide]",0.2 nM
11,"Cc1nc(NS(=O)(=O)CCC(F)(F)F)ccc1-c1nc2cnc(N[C@H]3CC[C@H](N(C)C)CC3)nc2n(C(C)C)c1=O [Example 251, N-[5-[2-[[4-(Dimethylamino)cyclohexyl]amino]-8-isopropyl-7-oxo-pteridin-6-yl]-6-methyl-2-pyridyl]-3,3,3-trifluoro-propane-1-sulfonamide]",7 nM
12,"Cc1nc(NS(=O)(=O)Cc2ccc(F)cc2)ccc1-c1nc2cnc(N[C@H]3CC[C@H](N(C)C)CC3)nc2n(C(C)C)c1=O [Example 252, N-[5-[2-[[4-(Dimethylamino)cyclohexyl]amino]-8-isopropyl-7-oxo-pteridin-6-yl]-6-methyl-2-pyridyl]-1-(4-fluorophenyl)methanesulfonamide]",1 nM
13,"Cc1nc(NS(=O)(=O)c2ccccc2F)ccc1-c1nc2cnc(N[C@H]3CC[C@H](N(C)C)CC3)nc2n(C(C)C)c1=O [Example 253, N-[5-[2-[[4-(Dimethylamino)cyclohexyl]amino]-8-isopropyl-7-oxo-pteridin-6-yl]-6-methyl-2-pyridyl]-2-fluoro-benzenesulfonamide]",0.3 nM
14,"Cc1nc(NS(=O)(=O)c2ccccc2Cl)ccc1-c1nc2cnc(N[C@H]3CC[C@H](N(C)C)CC3)nc2n(C(C)C)c1=O [Example 254, N-[5-[2-[[4-(Dimethylamino)cyclohexyl]amino]-8-isopropyl-7-oxo-pteridin-6-yl]-6-methyl-2-pyridyl]-2-chloro-benzenesulfonamide]",0.3 nM
15,"Cc1nc(NS(=O)(=O)c2ccccc2C#N)ccc1-c1nc2cnc(N[C@H]3CC[C@H](N(C)C)CC3)nc2n(C(C)C)c1=O [Example 255, N-[5-[2-[[4-(Dimethylamino)cyclohexyl]amino]-8-isopropyl-7-oxo-pteridin-6-yl]-6-methyl-2-pyridyl]-2-cyano-benzenesulfonamide]",0.2 nM
